Data taken from ChEMBL document CHEMBL1201862, “PubChem BioAssay data set” (2004).
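Five concentrations, 48 hours, 96-well plates. GI50 marks 50% less growth.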 Activity calls are given as the source filed them. Rule as the data show it: active = GI50 up to about 1.1 µM and inactive = higher.

Experiments:
Assay in all cases: DTP human tumour cell line panel, 48 h
A498 = system: A498
OVCAR-3 = system: OVCAR-3
SR = system: SR
NCI-H23 = system: NCI-H23
UO-31 = system: UO-31
SK-MEL-5 = system: SK-MEL-5
SF-539 = system: SF-539
K562 = system: K562
MCF7 = system: MCF7
BT-549 = system: BT-549
HOP-62 = system: HOP-62
LOX IMVI = system: LOX IMVI
HCC 2998 = system: HCC 2998
SF-295 = system: SF-295
SF-268 = system: SF-268
IGROV-1 = system: IGROV-1
UACC-257 = system: UACC-257
KM12 = system: KM12
NCI-H460 = system: NCI-H460
COLO 205 = system: COLO 205
786-0 = system: 786-0
ACHN = system: ACHN
HCT-116 = system: HCT-116
SK-MEL-28 = system: SK-MEL-28
RPMI-8226 = system: RPMI-8226
HOP-92 = system: HOP-92
DU-145 = system: DU-145
NCI/ADR-RES = system: NCI/ADR-RES
NCI-H226 = system: NCI-H226
SW-620 = system: SW-620
HL-60 = system: HL-60
MDA-N = system: MDA-N
A549 = system: A549
SNB-19 = system: SNB-19
SN12C = system: SN12C
HCT-15 = system: HCT-15
MDA-MB-435 = system: MDA-MB-435
OVCAR-5 = system: OVCAR-5
Malme-3M = system: Malme-3M
OVCAR-8 = system: OVCAR-8
TK-10 = system: TK-10
MDA-MB-231 = system: MDA-MB-231
M14 = system: M14
PC-3 = system: PC-3
OVCAR-4 = system: OVCAR-4
EKVX = system: EKVX
Hs-578T = system: Hs-578T
U-251 = system: U-251
HT-29 = system: HT-29
NCI-H522 = system: NCI-H522
SK-MEL-2 = system: SK-MEL-2
RXF 393 = system: RXF 393
SNB-75 = system: SNB-75
SK-OV-3 = system: SK-OV-3
CAKI-1 = system: CAKI-1
CCRF-CEM = system: CCRF-CEM
UACC-62 = system: UACC-62

How did the GI50 (A498) turn out when `O=c1cc(NNc2ccc3ccccc3c2)[nH]c(=S)[nH]1` was run?
Its GI50 is > 100 µM (inactive).

And the GI50 (OVCAR-3)?
Its GI50 is 19.3 µM (inactive).

And the GI50 (SR)?
The GI50 was 29.7 µM (inactive).

What about the GI50 (NCI-H23) of the same compound?
The GI50 was > 100 µM (inactive).

And the GI50 (UO-31)?
The GI50 was > 100 µM (inactive).

What about the GI50 (SK-MEL-5) of the same compound?
The GI50 was > 100 µM (inactive).

What about the GI50 (SF-539) of the same compound?
The GI50 was 30.3 µM (inactive).

What about the GI50 (K562) of the same compound?
The GI50 was 18.6 µM (inactive).

What about the GI50 (MCF7) of the same compound?
The GI50 was 4.31 µM (inactive).

What about the GI50 (BT-549) of the same compound?
The GI50 was 39.6 µM (inactive).

And the GI50 (HOP-62)?
Its GI50 is 27.4 µM (inactive).

What about the GI50 (LOX IMVI) of the same compound?
The GI50 was 13 µM (inactive).

What about the GI50 (HCC 2998) of the same compound?
Its GI50 is 24 µM (inactive).

And the GI50 (SF-295)?
The GI50 was 61.9 µM (inactive).

What about the GI50 (SF-268) of the same compound?
Its GI50 is 21.1 µM (inactive).

What about the GI50 (IGROV-1) of the same compound?
The GI50 was 22.5 µM (inactive).

And the GI50 (UACC-257)?
The GI50 was > 100 µM (inactive).

What about the GI50 (KM12) of the same compound?
Its GI50 is 17.7 µM (inactive).

What about the GI50 (NCI-H460) of the same compound?
Its GI50 is 40.9 µM (inactive).

And the GI50 (COLO 205)?
The GI50 was 23.2 µM (inactive).

And the GI50 (786-0)?
The GI50 was 6.75 µM (inactive).

What about the GI50 (ACHN) of the same compound?
The GI50 was 31.6 µM (inactive).

And the GI50 (HCT-116)?
Its GI50 is 39.9 µM (inactive).

What about the GI50 (SK-MEL-28) of the same compound?
The GI50 was 49.9 µM (inactive).

What about the GI50 (RPMI-8226) of the same compound?
Its GI50 is 22.2 µM (inactive).

What about the GI50 (HOP-92) of the same compound?
The GI50 was 28.1 µM (inactive).

And the GI50 (DU-145)?
Its GI50 is > 100 µM (inactive).

And the GI50 (NCI/ADR-RES)?
Its GI50 is > 100 µM (inactive).

What about the GI50 (NCI-H226) of the same compound?
The GI50 was > 100 µM (inactive).

And the GI50 (SW-620)?
Its GI50 is 18.2 µM (inactive).

And the GI50 (HL-60)?
The GI50 was 24.7 µM (inactive).

What about the GI50 (MDA-N) of the same compound?
Its GI50 is 45.6 µM (inactive).

What about the GI50 (A549) of the same compound?
The GI50 was > 100 µM (inactive).

And the GI50 (SNB-19)?
Its GI50 is 94.8 µM (inactive).

What about the GI50 (SN12C) of the same compound?
Its GI50 is 34.8 µM (inactive).

What about the GI50 (HCT-15) of the same compound?
The GI50 was 14.5 µM.

What about the GI50 (MDA-MB-435) of the same compound?
Its GI50 is 23.4 µM (inactive).

And the GI50 (OVCAR-5)?
Its GI50 is > 100 µM (inactive).

What about the GI50 (Malme-3M) of the same compound?
Its GI50 is 63.7 µM (inactive).

And the GI50 (OVCAR-8)?
Its GI50 is 44.9 µM (inactive).

What about the GI50 (TK-10) of the same compound?
Its GI50 is > 100 µM (inactive).

What about the GI50 (MDA-MB-231) of the same compound?
The GI50 was 42.8 µM (inactive).

And the GI50 (M14)?
The GI50 was 33.2 µM (inactive).

And the GI50 (PC-3)?
The GI50 was 19.8 µM (inactive).

And the GI50 (OVCAR-4)?
The GI50 was 68.7 µM (inactive).

And the GI50 (EKVX)?
The GI50 was > 100 µM (inactive).

And the GI50 (Hs-578T)?
Its GI50 is 25 µM (inactive).

And the GI50 (U-251)?
Its GI50 is 27 µM (inactive).

What about the GI50 (HT-29) of the same compound?
Its GI50 is 16.4 µM (inactive).

`O=c1[nH]c(Nc2nc3ccccc3[nH]2)nc(O)c1-c1ccccc1` was tested. Which GI50 (A498) did it give?
The GI50 was > 100 µM (inactive).

And the GI50 (OVCAR-3)?
The GI50 was > 100 µM (inactive).

What about the GI50 (SR) of the same compound?
Its GI50 is > 100 µM (inactive).

And the GI50 (NCI-H23)?
The GI50 was > 100 µM (inactive).

What about the GI50 (UO-31) of the same compound?
Its GI50 is > 100 µM (inactive).

And the GI50 (SK-MEL-5)?
The GI50 was > 100 µM (inactive).

What about the GI50 (SF-539) of the same compound?
Its GI50 is > 100 µM (inactive).

What about the GI50 (K562) of the same compound?
The GI50 was > 100 µM (inactive).

And the GI50 (MCF7)?
Its GI50 is > 100 µM (inactive).

What about the GI50 (NCI-H522) of the same compound?
Its GI50 is > 100 µM (inactive).

And the GI50 (BT-549)?
The GI50 was > 100 µM (inactive).

And the GI50 (HOP-62)?
Its GI50 is > 100 µM (inactive).

And the GI50 (SK-MEL-2)?
The GI50 was > 100 µM (inactive).

And the GI50 (LOX IMVI)?
The GI50 was > 100 µM (inactive).

What about the GI50 (HCC 2998) of the same compound?
Its GI50 is > 100 µM (inactive).

And the GI50 (SF-295)?
The GI50 was > 100 µM (inactive).

What about the GI50 (SF-268) of the same compound?
Its GI50 is > 100 µM (inactive).

And the GI50 (IGROV-1)?
Its GI50 is > 100 µM (inactive).

What about the GI50 (RXF 393) of the same compound?
Its GI50 is > 100 µM (inactive).

And the GI50 (UACC-257)?
Its GI50 is > 100 µM (inactive).

And the GI50 (SNB-75)?
Its GI50 is > 100 µM (inactive).

What about the GI50 (SK-OV-3) of the same compound?
The GI50 was > 100 µM (inactive).

What about the GI50 (NCI-H460) of the same compound?
Its GI50 is > 100 µM (inactive).

What about the GI50 (COLO 205) of the same compound?
Its GI50 is > 100 µM (inactive).

What about the GI50 (786-0) of the same compound?
The GI50 was > 100 µM (inactive).

What about the GI50 (ACHN) of the same compound?
The GI50 was > 100 µM (inactive).

And the GI50 (HCT-116)?
The GI50 was > 100 µM (inactive).

And the GI50 (SK-MEL-28)?
The GI50 was > 100 µM (inactive).

What about the GI50 (CAKI-1) of the same compound?
Its GI50 is > 100 µM (inactive).

What about the GI50 (CCRF-CEM) of the same compound?
The GI50 was > 100 µM (inactive).

And the GI50 (HOP-92)?
Its GI50 is > 100 µM (inactive).

What about the GI50 (DU-145) of the same compound?
The GI50 was > 100 µM (inactive).

What about the GI50 (NCI/ADR-RES) of the same compound?
The GI50 was > 100 µM (inactive).

And the GI50 (NCI-H226)?
The GI50 was > 100 µM (inactive).

And the GI50 (SW-620)?
Its GI50 is > 100 µM (inactive).

What about the GI50 (MDA-N) of the same compound?
The GI50 was > 100 µM (inactive).

And the GI50 (UACC-62)?
The GI50 was > 100 µM (inactive).

What about the GI50 (A549) of the same compound?
The GI50 was > 100 µM (inactive).

And the GI50 (SNB-19)?
The GI50 was > 100 µM (inactive).

What about the GI50 (SN12C) of the same compound?
Its GI50 is > 100 µM (inactive).

What about the GI50 (HCT-15) of the same compound?
The GI50 was greater than 100 µM.

And the GI50 (MDA-MB-435)?
Its GI50 is > 100 µM (inactive).

What about the GI50 (OVCAR-5) of the same compound?
The GI50 was > 100 µM (inactive).

And the GI50 (Malme-3M)?
Its GI50 is > 100 µM (inactive).

And the GI50 (OVCAR-8)?
The GI50 was > 100 µM (inactive).

And the GI50 (TK-10)?
Its GI50 is > 100 µM (inactive).

What about the GI50 (MDA-MB-231) of the same compound?
The GI50 was > 100 µM (inactive).

What about the GI50 (M14) of the same compound?
The GI50 was > 100 µM (inactive).

And the GI50 (PC-3)?
The GI50 was > 100 µM (inactive).

What about the GI50 (OVCAR-4) of the same compound?
The GI50 was > 100 µM (inactive).

And the GI50 (Hs-578T)?
The GI50 was 72.3 µM (inactive).

And the GI50 (U-251)?
The GI50 was 82.2 µM (inactive).

And the GI50 (HT-29)?
Its GI50 is > 100 µM (inactive).
